From patent US11814367B2, “Inhibitors of glycogen synthase 1 (GYS1) and methods of use thereof” (Maze Therapeutics, Inc., priority 2021, dated 2023)

Tests used:
[1] = biological target: hGYS1 enzyme (recombinant hGYS1/GN1 protein) (Homo sapiens (Human), UniProt P13807); assay: GYS1 coupled enzyme assay (PK/LDH); format: biochemical; conditions: hGYS1/GN1 50 nM, UDP-Glucose 0.8 mM, G6P 1 mM; geometric mean of at least 2 runs
[2] = biological target: hGYS2 enzyme (recombinant hGYS2/GN1 protein) (Homo sapiens (Human), UniProt P54840); assay: GYS2 coupled enzyme assay (PK/LDH); format: biochemical; conditions: geometric mean of at least 2 assay runs on separate days, read-out: Avg_IC50
hGYS2 enzyme (recombinant hGYS2/GN1 protein), sequence (P54840 whole entry): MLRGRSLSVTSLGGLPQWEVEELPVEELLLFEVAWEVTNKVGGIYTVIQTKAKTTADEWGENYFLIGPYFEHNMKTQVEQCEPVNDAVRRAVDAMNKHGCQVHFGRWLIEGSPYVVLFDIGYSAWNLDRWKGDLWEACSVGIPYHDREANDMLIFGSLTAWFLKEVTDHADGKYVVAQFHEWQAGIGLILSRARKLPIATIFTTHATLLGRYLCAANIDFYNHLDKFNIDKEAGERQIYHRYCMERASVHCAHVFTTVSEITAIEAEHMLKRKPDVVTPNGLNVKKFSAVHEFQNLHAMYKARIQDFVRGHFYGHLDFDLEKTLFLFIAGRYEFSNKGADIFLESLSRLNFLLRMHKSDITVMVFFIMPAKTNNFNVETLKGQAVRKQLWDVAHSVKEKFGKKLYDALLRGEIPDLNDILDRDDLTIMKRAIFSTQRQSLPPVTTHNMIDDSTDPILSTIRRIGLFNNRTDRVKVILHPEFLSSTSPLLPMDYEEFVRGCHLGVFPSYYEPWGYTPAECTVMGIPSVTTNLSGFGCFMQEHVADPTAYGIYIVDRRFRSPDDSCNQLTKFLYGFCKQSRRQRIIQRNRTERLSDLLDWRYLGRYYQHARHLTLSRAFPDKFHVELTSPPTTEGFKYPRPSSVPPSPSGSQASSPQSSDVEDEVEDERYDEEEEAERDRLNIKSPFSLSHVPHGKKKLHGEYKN
hGYS2 enzyme (recombinant hGYS2/GN1 protein), sequence (P46976 whole entry partner): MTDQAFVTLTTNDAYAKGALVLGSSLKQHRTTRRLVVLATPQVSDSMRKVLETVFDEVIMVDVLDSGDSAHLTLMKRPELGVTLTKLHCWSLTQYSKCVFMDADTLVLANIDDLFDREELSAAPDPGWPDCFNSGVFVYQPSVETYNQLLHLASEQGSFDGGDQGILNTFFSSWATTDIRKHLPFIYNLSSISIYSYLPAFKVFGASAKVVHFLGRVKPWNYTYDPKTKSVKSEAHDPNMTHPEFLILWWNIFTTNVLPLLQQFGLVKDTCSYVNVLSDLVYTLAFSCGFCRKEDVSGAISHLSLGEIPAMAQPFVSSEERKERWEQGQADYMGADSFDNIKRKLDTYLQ
Outline: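 IC50 came from Hill fits of duplicate percent inhibition, based on control-normalized slopes of 340 nm NADH decline read each minute for 10 min. The reaction held recombinant hGYS2/GN1 (200 nM) with glycogen, UDP-glucose, G6P and PEP, plus PK/LDH coupling at pH 7.5 and 2.5% DMSO.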

hGYS1 enzyme (recombinant hGYS1/GN1 protein), sequence (P13807 whole entry): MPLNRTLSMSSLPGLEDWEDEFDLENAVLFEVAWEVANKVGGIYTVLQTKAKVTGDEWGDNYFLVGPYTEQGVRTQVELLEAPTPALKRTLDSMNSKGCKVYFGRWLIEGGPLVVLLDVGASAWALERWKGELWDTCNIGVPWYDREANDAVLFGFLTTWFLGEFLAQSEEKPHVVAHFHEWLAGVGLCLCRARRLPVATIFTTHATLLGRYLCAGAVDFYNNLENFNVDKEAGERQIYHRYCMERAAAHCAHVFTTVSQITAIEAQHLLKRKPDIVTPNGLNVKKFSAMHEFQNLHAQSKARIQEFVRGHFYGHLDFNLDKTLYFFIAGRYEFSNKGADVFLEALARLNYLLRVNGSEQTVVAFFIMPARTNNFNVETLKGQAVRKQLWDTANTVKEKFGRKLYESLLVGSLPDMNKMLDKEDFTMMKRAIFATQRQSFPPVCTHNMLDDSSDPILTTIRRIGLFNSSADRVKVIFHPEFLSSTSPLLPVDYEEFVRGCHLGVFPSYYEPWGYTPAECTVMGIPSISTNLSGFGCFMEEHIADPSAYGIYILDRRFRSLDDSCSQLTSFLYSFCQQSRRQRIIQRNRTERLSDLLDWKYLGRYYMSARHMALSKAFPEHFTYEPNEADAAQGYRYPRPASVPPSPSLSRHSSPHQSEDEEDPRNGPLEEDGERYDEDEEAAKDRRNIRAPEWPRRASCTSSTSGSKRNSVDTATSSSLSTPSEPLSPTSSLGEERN
hGYS1 enzyme (recombinant hGYS1/GN1 protein), sequence (P46976 whole entry partner): as the sequence (P46976 whole entry partner) above

Structure (SMILES)	IC50 [1] [nM]	IC50 [2] [nM]
CC(C)c1ccc([C@@H](NC(=O)[C@@H]2C[C@@H](F)CN2C(=O)Cc2c[nH]cn2)c2ccccc2)cc1 [Compound 18, (2S,4R)-4-fluoro-1-[2-(1H-imidazol-4-yl)acetyl]-N-[(S)-phenyl[4-(propan-2-yl)phenyl]methyl]pyrrolidine-2-carboxamide]	45	> 100000
CC(C)c1ccc([C@@H](NC(=O)[C@@H]2C[C@@H](F)CN2C(=O)CCn2nc3ccccn3c2=O)c2ccccc2)nc1 [Compound 289, (2S,4R)-4-fluoro-1-(3-{3-oxo-2H,3H-[1,2,4]triazolo[4,3-a]pyridin-2-yl}propanoyl)-N-[(S)-phenyl[5-(propan-2-yl)pyridin-2-yl]methyl]pyrrolidine-2-carboxamide]	56	> 100000
Cc1nnc(CC(=O)N2C[C@H](F)C[C@H]2C(=O)N[C@@H](c2ccccc2)c2ccc(C3CC3)c(F)c2)[nH]1 [Compound 434, (2S,4R)-N-[(S)-(4-cyclopropyl-3-fluorophenyl)(phenyl)methyl]-4-fluoro-1-[2-(5-methyl-4H-1,2,4-triazol-3-yl)acetyl]pyrrolidine-2-carboxamide]	109	> 100000
Cc1n[nH]c(C)c1CC(=O)N1C[C@H](F)C[C@H]1C(=O)N[C@@H](c1ccccc1)c1ccc(C2CC2)c(F)c1 [Compound 444, (2S,4R)-N-[(S)-(4-cyclopropyl-3-fluorophenyl)(phenyl)methyl]-1-[2-(3,5-dimethyl-1H-pyrazol-4-yl)acetyl]-4-fluoropyrrolidine-2-carboxamide]	44	> 100000
CC(C)c1ccc([C@@H](NC(=O)[C@@H]2C[C@@H](F)CN2C(=O)Cc2cccc3ncccc23)c2ccccc2)cc1 [Compound 130, (2S,4R)-4-fluoro-N-[(S)-phenyl[4-(propan-2-yl)phenyl]methyl]-1-[2-(quinolin-5-yl)acetyl]pyrrolidine-2-carboxamide]	7	> 100000
CC(C)c1ccc([C@@H](NC(=O)[C@@H]2C[C@@H](F)CN2C(=O)Cc2cnc3ccccn23)c2ccccc2)cc1 [Compound 121]	15	> 100000
CC(C)c1ccc([C@@H](NC(=O)[C@@H]2C[C@@H](F)CN2C(=O)C(C)c2cnn[nH]2)c2ccccc2)cc1F (single isomer, unassigned) [Compound 770, (2S,4R)-4-fluoro-N-[(S)-[3-fluoro-4-(propan-2-yl)phenyl](phenyl)methyl]-1-[(2S) or (2R)-2-(1H-1,2,3-triazol-5-yl)propanoyl]pyrrolidine-2-carboxamide]	62	> 100000
CC(C)c1ccc([C@@H](NC(=O)[C@@H]2C[C@@H](F)CN2C(=O)Cc2noc3ccccc23)c2ccccc2)cc1 [Compound 119, (2S,4R)-1-[2-(1,2-benzoxazol-3-yl)acetyl]-4-fluoro-N-[(S)-phenyl[4-(propan-2-yl)phenyl]methyl]pyrrolidine-2-carboxamide]	109	> 100000
CC(C)c1ccc([C@@H](NC(=O)[C@@H]2C[C@@H](F)CN2C(=O)CNC(=O)N2CC(F)(F)C2)c2ccccc2)nc1 [Compound 290, (2S,4R)-1-{2-[(3,3-difluoroazetidine-1-carbonyl]amino]acetyl}-4-fluoro-N-[(S)-phenyl[5-(propan-2-yl)pyridin-2-yl]methyl]pyrrolidine-2-carboxamide]	56	> 100000
CC(C)c1ccc([C@@H](NC(=O)[C@@H]2C[C@@H](F)CN2C(=O)CCC#N)c2ccccc2)cc1 [Compound 13, (2S,4R)-1-(3-cyanopropanoyl)-4-fluoro-N-[(S)-phenyl[4-(propan-2-yl)phenyl]methyl]pyrrolidine-2-carboxamide]	147	> 100000
CC(=O)N1CC2(CCC(C(=O)N3C[C@H](F)C[C@H]3C(=O)N[C@@H](c3ccccc3)c3ccc(C(C)C)cc3)O2)C1 (stereo partly drawn) [Compound 163, (2S,4R)-1-{2-acetyl-5-oxa-2-azaspiro[3.4]octane-6-carbonyl}-4-fluoro-N-[(S)-phenyl[4-(propan-2-yl)phenyl]methyl]pyrrolidine-2-carboxamide]	135	> 100000
CC(C)c1ccc([C@@H](NC(=O)[C@@H]2C[C@@H](F)CN2C(=O)Cc2cncnc2)c2ccccc2)cc1F [Compound 345, (2S,4R)-4-fluoro-N-[(S)-[3-fluoro-4-(propan-2-yl)phenyl](phenyl)methyl]-1-[2-(pyrimidin-5-yl)acetyl]pyrrolidine-2-carboxamide]	32	> 100000
Cc1cn(CC(=O)N2C[C@H](F)C[C@H]2C(=O)N[C@@H](c2ccccc2)c2ccc(C(C)C)c(F)n2)c(=O)n(C)c1=O [Compound 386, (2S,4R)-1-[2-(3,5-dimethyl-2,4-dioxo-1,2,3,4-tetrahydropyrimidin-1-yl)acetyl]-4-fluoro-N-[(S)-[6-fluoro-5-(propan-2-yl)pyridin-2-yl](phenyl)methyl] pyrrolidine-2-carboxamide]	5	> 100000
Cc1ccc(CCC(=O)N2C[C@H](F)C[C@H]2C(=O)N[C@@H](c2ccccc2)c2ccc(C(C)C)cc2)cn1 [Compound 100, (2S,4R)-4-fluoro-1-[3-(6-methylpyridin-3-yl)propanoyl]-N-[(S)-phenyl[4-(propan-2-yl)phenyl]methyl]pyrrolidine-2-carboxamide]	73	> 100000
CC(C)c1ccc([C@@H](NC(=O)[C@@H]2C[C@@H](F)CN2C(=O)C(C)(C)c2ncn[nH]2)c2ccccc2)cc1 [Compound 233, (2S,4R)-4-fluoro-1-[2-methyl-2-(1H-1,2,4-triazol-5-yl)propanoyl]-N-[(S)-phenyl[4-(propan-2-yl)phenyl]methyl]pyrrolidine-2-carboxamide]	252	> 100000
Cc1ccccc1OCC(=O)N1C[C@H](F)C[C@H]1C(=O)N[C@@H](c1ccccc1)c1ccc(C(C)C)cc1 [Compound 91, (2S,4R)-4-fluoro-1-[2-(2-methylphenoxy)acetyl]-N-[(S)-phenyl[4-(propan-2-yl)phenyl]methyl]pyrrolidine-2-carboxamide]	47	> 100000
CC(=O)N1CCCC1CCC(=O)N1C[C@H](F)C[C@H]1C(=O)N[C@@H](c1ccccc1)c1ccc(C(C)C)cc1 (stereo partly drawn) [Compound 172, (2S,4R)-1-[3-(1-acetylpyrrolidin-2-yl)propanoyl]-4-fluoro-N-[(S)-phenyl[4-(propan-2-yl)phenyl]methyl]pyrrolidine-2-carboxamide]	255	> 100000
CC(=O)NCCC(=O)N1C[C@H](F)C[C@H]1C(=O)N[C@@H](c1ccccc1)c1ccc(C(C)C)cc1 [Compound 190, (2S,4R)-1-(3-acetamidopropanoyl)-4-fluoro-N-[(S)-phenyl[4-(propan-2-yl)phenyl]methyl]pyrrolidine-2-carboxamide]	220	> 100000
CC(C)c1ccc([C@@H](NC(=O)[C@@H]2C[C@@H](F)CN2C(=O)Cc2nnc(CN)o2)c2ccccc2)cc1 [Compound 238, (2S,4R)-1-{2-[5-(aminomethyl)-1,3,4-oxadiazol-2-yl]acetyl}-4-fluoro-N-[(S)-phenyl[4-(propan-2-yl)phenyl]methyl]pyrrolidine-2-carboxamide]	46	> 100000
COc1ccccc1[C@H](NC(=O)[C@@H]1CCCN1C(C)=O)c1ccc(C(C)C)cc1 [Compound 639, (2S)-1-acetyl-N-[(R)-(2-methoxyphenyl)[4-(propan-2-yl)phenyl]methyl] pyrrolidine-2-carboxamide]	921	> 100000
CC(C)c1ccc([C@@H](NC(=O)[C@@H]2C[C@@H](F)CN2C(=O)CCc2cnn(C)c2)c2ccccc2)cc1 [Compound 76, (2S,4R)-4-fluoro-1-[3-(1-methyl-1H-pyrazol-4-yl)propanoyl]-N-[(S)-phenyl[4-(propan-2-yl)phenyl]methyl]pyrrolidine-2-carboxamide]	106	> 100000
Cc1cc([C@@H](NC(=O)[C@@H]2C[C@@H](F)CN2C(=O)Cc2cnn[nH]2)c2ccccc2)ccc1C1CC1 [Compound 665, (2S,4R)-N-[(S)-(4-cyclopropyl-3-methylphenyl) (phenyl)methyl]-4-fluoro-1-[2-(1H-1,2,3-triazol-5-yl)acetyl]pyrrolidine-2-carboxamide]	99	> 100000
CC(C)c1ccc([C@@H](NC(=O)[C@@H]2C[C@@H](F)CN2C(=O)Cc2c[nH]c3ccccc23)c2ccccc2)cc1 [Compound 86, (2S,4R)-4-fluoro-1-[2-(1H-indol-3-yl)acetyl]-N-[(S)-phenyl[4-(propan-2-yl)phenyl]methyl]pyrrolidine-2-carboxamide]	12	> 100000
CC(C)c1ccc([C@@H](NC(=O)[C@@H]2C[C@@H](F)CN2C(=O)Cc2nnc(CNC(=O)OC(C)(C)C)o2)c2ccccc2)cc1 [Compound 237, tert-butyl N-[(5-{2-[(2S,4R)-4-fluoro-2-{[(S)-phenyl[4-(propan-2-yl)phenyl]methyl]carbamoyl}pyrrolidin-1-yl]-2-oxoethyl}-1,3,4-oxadiazol-2-yl)methyl]carbamate]	54	> 100000
CC(=O)N1C[C@H]2C[C@H](C(=O)N3C[C@H](F)C[C@H]3C(=O)N[C@@H](c3ccccc3)c3ccc(C(C)C)cc3)O[C@H]2C1 [Compound 162, (2S,4R)-1-[(2R,3aR,6aR)-5-acetyl-hexahydro-2H-furo[2,3-c]pyrrole-2-carbonyl]-4-fluoro-N-[(S)-phenyl[4-(propan-2-yl)phenyl]methyl]pyrrolidine-2-carboxamide]	136	> 100000
